Test results: US20150126368A1, “METHOD OF PROVIDING PLANT WITH STRESS RESISTANCE” (Nippon Soda Co., Ltd., priority 2012, published 2015)

What was measured:
[1] = test system: Cherry tomato (breed; Regina); experiment: Evaluation test for relief effects of high temperature injury on cherry tomato; type: in vivo; conditions: 30% water dispersible granule at plant foot at intervals of seven days
Protocol: Cherry tomato (breed; Regina, 5 reprications) grown in a greenhouse was prepared.
On August 24 at the first inflorescence anthesis, 0.15% of 4-chlorophenoxyacetic acid was sprayed, and a water dispersible granule of 30% ascorbyl palmitate in an amount described in Table 4 was further applied at the plant foot at intervals of seven days. All fruits were harvested on September 28, and the color of a fruit (classified into red and green), the weight of a fruit, and the number of fruits were investigated to calculate the weight per fruit and the percentage of red fruits (%).

[2] = test system: Wheat (breed, Norin No. 61); experiment: Test for green color maintenance effects (relief of high temperature injury) on wheat; type: in vivo; conditions: appl. amount 1.5 g/m^2 at plant foot, 4 times at intervals of seven days, field
Description: Wheat (breed, Norin No. 61, 15 plants/m^2/region, 2 reprications) grown in the field was used. A water dispersible granule of 30% ascorbyl palmitate in an amount described in Table 11 was applied to the plant foot 4 times at intervals of seven days from the next day of the ear emergence day in August. The leaf color index of top 4 to 5 leaves of each plant in a treatment region was investigated on September 6 to evaluate maintenance effects of leaf color as compared with that in the untreated region.
Leaf color was evaluated by […] of leaf color indices of 1 (discolored at ¼ or less of the whole), 2 (discolored at ½ or less of the whole) and 3 (discolored at ¾ or more of the whole). From this, the mean leaf color index, and green color maintenance effects were computed by the following formula.
Green color maintenance effect=(leaf color index of untreated region)−(leaf color index of each treatment region))/(leaf color index of untreated region)×100

CCCCCCCCCCCCCCCC(=O)OC[C@H](O)[C@H]1OC(=O)C(O)=C1O [ascorbyl palmitate]
color of fruit: Number of green fruits ([1]; dosage 0.1 g/stock): 13 | color of fruit: Number of red fruits ([1]; dosage 0.1 g/stock): 19 | color of fruit: Percents of red fruits vs. no treatment region(%) ([1]; dosage 0.1 g/stock): 141% | color of fruit: Percents of red fruits(%) ([1]; dosage 0.1 g/stock): 59% | yield: Total number of fruits ([1]; dosage 0.1 g/stock): 32 | yield: Total weight of fruits ([1]; dosage 0.1 g/stock): 304 g | yield: weight per fruit vs. no treatment region(%) ([1]; dosage 0.1 g/stock): 138% | yield: weight per fruit(g/fruit) ([1]; dosage 0.1 g/stock): 9.5 g/fruit | color of fruit: Number of green fruits ([1]; dosage 0.5 g/stock): 4 | color of fruit: Number of red fruits ([1]; dosage 0.5 g/stock): 29 | color of fruit: Percents of red fruits vs. no treatment region(%) ([1]; dosage 0.5 g/stock): 209% | color of fruit: Percents of red fruits(%) ([1]; dosage 0.5 g/stock): 88% | yield: Total number of fruits ([1]; dosage 0.5 g/stock): 33 | yield: Total weight of fruits ([1]; dosage 0.5 g/stock): 342 g | yield: weight per fruit vs. no treatment region(%) ([1]; dosage 0.5 g/stock): 151% | yield: weight per fruit(g/fruit) ([1]; dosage 0.5 g/stock): 10.4 g/fruit | mean leaf color index ([2]; index 1 to 3): 1.5 | Green color maintenance effect(%) ([2]; vs untreated region): 25.0%
